The subject of experiment [1] is WI-38. Put plainly: Cytotoxicity against human WI38 cells assessed as growth inhibition after 48 hrs by MTS assay. It is filed as cell-based. To be noted: WI-38, 48 h. In general terms: Formazan colour is commonly taken as a measure of viable cells.
The target in experiment [2] is Isocitrate dehydrogenase [NADP] cytoplasmic (Homo sapiens, UniProt O75874). Put plainly: Inhibition of wild type IDH1 (unknown origin) expressed in Escherichia coli BL21 using […] as substrate incubated for 5 mins prior to substrate addition measured every 30 secs.
Chain of Isocitrate dehydrogenase [NADP] cytoplasmic (O75874 whole entry): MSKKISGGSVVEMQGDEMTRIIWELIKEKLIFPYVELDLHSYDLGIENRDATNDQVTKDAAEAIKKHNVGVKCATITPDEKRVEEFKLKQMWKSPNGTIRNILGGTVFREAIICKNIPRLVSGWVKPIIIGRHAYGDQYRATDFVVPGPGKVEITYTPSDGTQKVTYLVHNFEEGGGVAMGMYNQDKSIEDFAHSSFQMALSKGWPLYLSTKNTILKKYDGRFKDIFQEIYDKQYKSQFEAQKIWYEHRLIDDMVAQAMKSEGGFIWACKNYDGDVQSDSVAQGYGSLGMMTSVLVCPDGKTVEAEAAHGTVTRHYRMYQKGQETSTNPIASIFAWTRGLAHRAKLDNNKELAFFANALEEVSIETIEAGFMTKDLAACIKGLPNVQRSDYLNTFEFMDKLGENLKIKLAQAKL

Each structure is given as a SMILES string.

Regarding `Cc1cc(Cc2ccccc2)n(O)c(=O)c1`, the EC50 in experiment [1] is greater than 50 µM. On the same count and under the same terms, next, `Cc1cc(Cc2ccc(O)cc2)n(O)c(=O)c1`: greater than 50 µM; `O=c1cccc(Cc2ccccc2)n1O`: greater than 50 µM; `CC(C)c1cc(Cc2ccccc2)n(O)c(=O)c1`: greater than 50 µM. The compound `Cc1cc(-c2ccccc2)n(O)c(=O)c1` registered a Ki in experiment [2] greater than 50 µM.

As usually defined, the EC50 is the concentration needed to bring the measured effect to its halfway point. By Ki is commonly meant a dissociation constant, usually derived from enzyme kinetics or from competition with a known ligand. Lower therefore signals tighter binding.

The record behind these values is ChEMBL document CHEMBL2385030, “Crystallographic Investigation and Selective Inhibition of Mutant Isocitrate Dehydrogenase” (ACS Med Chem Lett, 2013).
